In ChEMBL document CHEMBL1146032, “Synthesis and biological activity of nociceptin/orphanin FQ(1-13)NH2 analogues modified in 9 and/or 13 position” (Bioorg Med Chem Lett, 2006):
Values joined by “and” are separate entries in the source; they are usually repeats but may differ in a detail not shown here. Equal values may be shown once. Where a SMILES comes first, the peptide text is derived from it. [ ]: non-standard residue; d: D form. Dap = NC[C@H](N)C(=O)O

Legend:
Type in all cases: functional, tissue-based
[1] = biological target: Nociceptin receptor (Rattus norvegicus) (UniProt P35370); assay: Activity against LFES-evoked contraction of Wistar rat vas deferens relative to N/OFQ(1-13)NH2 in presence of naloxone
Chain of Nociceptin receptor (Rattus norvegicus) (P35370 whole entry): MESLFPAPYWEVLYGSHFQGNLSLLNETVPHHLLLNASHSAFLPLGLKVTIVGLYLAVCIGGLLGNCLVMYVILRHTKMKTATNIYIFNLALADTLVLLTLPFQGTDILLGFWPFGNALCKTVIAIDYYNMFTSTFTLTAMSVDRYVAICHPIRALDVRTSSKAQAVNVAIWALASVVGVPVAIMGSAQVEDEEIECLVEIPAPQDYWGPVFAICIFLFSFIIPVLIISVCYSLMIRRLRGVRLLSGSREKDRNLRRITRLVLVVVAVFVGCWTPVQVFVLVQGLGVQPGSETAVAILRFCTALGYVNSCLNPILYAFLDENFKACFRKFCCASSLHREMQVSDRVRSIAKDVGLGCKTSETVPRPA

[2] = biological target: Nociceptin receptor (Rattus norvegicus) (UniProt P35370); assay: (§1) Activity against LFES-evoked contraction of Wistar rat vas deferens
[3] = biological target: Nociceptin receptor (Rattus norvegicus) (UniProt P35370); assay: Activity against LFES-evoked contraction of Wistar rat vas deferens relative to N/OFQ(1-13)NH2
[4] = biological target: Nociceptin receptor (Rattus norvegicus) (UniProt P35370); assay: (§2) Activity against LFES-evoked contraction of Wistar rat vas deferens in presence of naloxone
[5] = biological target: T1, Nociceptin receptor (Rattus norvegicus, UniProt P35370); assay: as §1
T1 sequence (P35370 whole entry): as above

[6] = biological target: T1, Nociceptin receptor; assay: as §2

Compound: C[C@H](NC(=O)CNC(=O)[C@@H](NC(=O)[C@H](Cc1ccccc1)NC(=O)CNC(=O)CNC(=O)[C@@H](N)Cc1ccccc1)[C@@H](C)O)C(=O)N[C@@H](CCCNC(=N)N)C(=O)N[C@@H](CCCCN)C(=O)N[C@@H](CO)C(=O)N[C@@H](C)C(=O)N[C@@H](CCCNC(=N)N)C(=O)N[C@@H](CCCCN)C(N)=O
- Activity [1]: 1
- Emax [2]: -46%
- Activity [3]: 1
- Emax [4]: -49%

Compound: C[C@H](NC(=O)CNC(=O)[C@@H](NC(=O)[C@H](Cc1ccccc1)NC(=O)CNC(=O)CNC(=O)[C@@H](N)Cc1ccccc1)[C@@H](C)O)C(=O)N[C@@H](CCCN=C(N)N)C(=O)N[C@@H](CCCN)C(=O)N[C@@H](CO)C(=O)N[C@@H](C)C(=O)N[C@@H](CCCN=C(N)N)C(=O)N[C@@H](CCCN)C(N)=O
- Activity [1]: 2.45
- Emax [2]: -56%
- EC50 [5]: 0.407 µM
- Activity [3]: 1.41
- Emax [4]: -70%
- EC50 [6]: 0.977 µM

Compound: C[C@H](NC(=O)CNC(=O)[C@@H](NC(=O)[C@H](Cc1ccccc1)NC(=O)CNC(=O)CNC(=O)[C@@H](N)Cc1ccccc1)[C@@H](C)O)C(=O)N[C@@H](CCCN=C(N)N)C(=O)N[C@@H](CCCN)C(=O)N[C@@H](CO)C(=O)N[C@@H](C)C(=O)N[C@@H](CCCN=C(N)N)C(=O)N[C@@H](CCCCN)C(N)=O
- Activity [1]: 1.56
- Emax [2]: -71%
- EC50 [5]: 0.234 µM
- Activity [3]: 2.45
- Emax [4]: -77%
- EC50 [6]: 0.214 µM

Compound: C[C@H](NC(=O)CNC(=O)[C@@H](NC(=O)[C@H](Cc1ccccc1)NC(=O)CNC(=O)CNC(=O)[C@@H](N)Cc1ccccc1)[C@@H](C)O)C(=O)N[C@@H](CCCN=C(N)N)C(=O)N[C@@H](CCCCN)C(=O)N[C@@H](CO)C(=O)N[C@@H](C)C(=O)N[C@@H](CCCN=C(N)N)C(=O)N[C@@H](CCCN)C(N)=O
- Activity [1]: 0.04
- Emax [2]: -60% and -57%
- EC50 [5]: 6.17 µM and 11.2 µM
- Activity [3]: 0.09 and 0.05
- Emax [4]: -33% and -49%
- EC50 [6]: 9.33 µM and 11 µM

Compound: C[C@H](NC(=O)CNC(=O)[C@@H](NC(=O)[C@H](Cc1ccccc1)NC(=O)CNC(=O)CNC(=O)[C@@H](N)Cc1ccccc1)[C@@H](C)O)C(=O)N[C@@H](CCCN=C(N)N)C(=O)N[C@@H](CN)C(=O)N[C@@H](CO)C(=O)N[C@@H](C)C(=O)N[C@@H](CCCN=C(N)N)C(=O)N[C@@H](CN)C(N)=O (H-FGGFTGAR[Dap]SAR[Dap]-NH2)
- Activity [1]: 0.06
- Emax [2]: -54%
- EC50 [5]: 2.34 µM
- Activity [3]: 0.25
- Emax [4]: -46%
- EC50 [6]: 6.17 µM
